Measurements as given in US7893077B2, “Bisaryl-sulfonamides” (Amgen Inc., priority 2004, dated 2011).
pIC50: −log10 of the molar value.

The compounds below were run against T1, PPARγ (Homo sapiens, UniProt P37231) (assay: PPARγ ligand binding assay utilizing [3H]-BRL 49653 as the radioligand (filtration)). Conditions: concentration required to reduce by 50% the specific binding of [3H]-BRL 49653.
T1 construct: made in house
T1 sequence (P37231 1-505): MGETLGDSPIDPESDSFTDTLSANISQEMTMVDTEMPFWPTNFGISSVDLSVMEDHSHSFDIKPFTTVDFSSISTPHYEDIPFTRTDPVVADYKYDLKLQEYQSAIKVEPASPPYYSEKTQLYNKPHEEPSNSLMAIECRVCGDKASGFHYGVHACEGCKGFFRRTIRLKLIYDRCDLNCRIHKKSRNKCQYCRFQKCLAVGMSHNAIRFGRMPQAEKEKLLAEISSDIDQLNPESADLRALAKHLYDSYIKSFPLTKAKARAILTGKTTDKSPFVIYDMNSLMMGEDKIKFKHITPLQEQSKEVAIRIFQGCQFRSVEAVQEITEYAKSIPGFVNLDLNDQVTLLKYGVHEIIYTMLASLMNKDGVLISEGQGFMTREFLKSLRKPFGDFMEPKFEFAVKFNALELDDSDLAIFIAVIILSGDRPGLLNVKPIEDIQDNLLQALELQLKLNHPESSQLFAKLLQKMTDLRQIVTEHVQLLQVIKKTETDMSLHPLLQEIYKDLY
In short: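 Displacement of 10 nM [3H]-BRL 49653 from PPARγ-GST fusion protein in Tris-HCl pH 8.0 buffer with KCl, DTT, BSA and NP-40, 15 min incubation, then glutathione-bead capture for 1 h. Bound radioactivity counted after filtration washes; IC50 is concentration giving 50% loss of specific binding, reported in ranges.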

Structure (SMILES) | pIC50
CCCCc1cc(NS(=O)(=O)c2ccc(C(F)(F)F)cc2Cl)nnc1Sc1ccc(S(=O)(=O)C2CCCC2)cc1 [Compound 134, 3-(2′-chloro-4′-trifluoromethyl)phenylsulfonylamino-5-n-butyl-6-(4″-cyclopentanesulfonyl)phenylthiopyridazine] | > 6.00
Cc1cc(S(=O)(=O)Nc2nnc(Sc3ccc(S(=O)(=O)N4CCCCC4)cc3)cc2C)c(Cl)cc1Cl [Compound 139, 2,4-Dichloro-5-methyl-N -{4-methyl-6-[4-(piperidine-1-sulfonyl)-phenylsulfanyl]-pyridazin-3-yl}-benzenesulfonamide] | > 6.00
O=C(c1cc(NS(=O)(=O)c2ccc(Cl)cc2Cl)ncc1Sc1ccc(S(=O)(=O)N2CCCCC2)cc1)C1CC1 [Compound 128, 2,4-dichloro-N-{4-cyclopropanecarbonyl-5-[4-(piperidine-1-sulfonyl)-phenylsulfanyl]-pyridin-2-yl}-benzenesulfonamide] | > 6.00
Cc1nc(NS(=O)(=O)c2ccc(Cl)cc2Cl)ccc1Sc1ccc(S(=O)(=O)N2CCCCC2)cc1 [Compound 65, 2,4-Dichloro-N-{6-methyl-5-[4-(piperidine-1-sulfonyl) -phenylsulfanyl]-pyridin-2-yl}-benzenesulfonamide] | > 6.00
CCCNc1nc(NS(=O)(=O)c2ccc(Cl)cc2Cl)ncc1Oc1ccc(Cl)c(Cl)c1 [Compound 27, 2,4-Dichloro-N-[5-(3,4-dichloro-phenoxy)-4-propylamino-pyrimidin-2-yl]-benzenesulfonamide] | > 5.00

Now from value to compound:

pIC50 | Structure (SMILES)
> 6.00 | CCNS(=O)(=O)c1ccc(Sc2ccc(NS(=O)(=O)c3ccc(Cl)cc3Cl)nc2C(=O)C2CC2)cc1 [Compound 119, 2,4-Dichloro-N-[6-cyclopropanecarbonyl-5-(4-ethylsulfamoyl-phenylsulfanyl)-pyridin-2-yl]-benzenesulfonamide]
> 6.00 | O=C(c1nc(NS(=O)(=O)c2ccc(C(F)(F)F)cc2Cl)ccc1Sc1ccc(S(=O)(=O)N2CCOCC2)cc1)C1CC1 [Compound 88, 2-Chloro-N-{6-cyclopropanecarbonyl-5-[4-(morpholine-4-sulfonyl)-phenylsulfanyl]-pyridin-2-yl}-4-trifluoromethyl-benzenesulfonamide]
> 6.00 | O=C(c1nc(NS(=O)(=O)c2ccc(Cl)cc2Cl)ccc1Sc1ccc(S(=O)(=O)N2CCOCC2)cc1)C1CC1 [Compound 79, 2,4-Dichloro-N-{6-cyclopropanecarbonyl-5-[4-(morpholine-4-sulfonyl)-phenylsulfanyl]-pyridin-2-yl}-benzenesulfonamide]
